The values below come from patent US11208412B2 (DAEGU-GYEONGBUK MEDICAL INNOVATION FOUNDATION, priority 2017, dated 2021).

Common to all, as to experiment: Kinase selectivity, DiscoverX scanMAX Kinase assay panel (% control)
Type in all cases: binding

Test [1] addresses T1, kinases of the scanMAX Kinase assay panel (Homo sapiens, UniProt Q9Y6E0).
T1 construct: purchased DiscoverX Co. (contract measurement) scanMAX Kinase assay panel
Conditions: MST3; 1 uM. In a few lines:
(§1)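 Compounds tested at 1 uM against the scanMAX kinase panel. Signal expressed as % control = (compound − positive control)/(DMSO negative control − positive control) × 100, where positive control = 0% and DMSO = 100%; below 35% counted as activity on that kinase.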

In test [2] the target is T2, kinases of the scanMAX Kinase assay panel (Homo sapiens, UniProt Q9Y5S2).
T2 construct: purchased DiscoverX Co. (contract measurement) scanMAX Kinase assay panel
The conditions noted are these: MRCKB; 1 uM. In a few lines:
as §1

Test [3] concerns the target T3, kinases of the scanMAX Kinase assay panel (Homo sapiens, UniProt P07333).
T3 construct: purchased DiscoverX Co. (contract measurement) scanMAX Kinase assay panel
Conditions: 1 uM. In a few lines: as §1

Test [4] concerns the target T4, kinases of the scanMAX Kinase assay panel (Homo sapiens, UniProt Q9H093).
T4 construct: purchased DiscoverX Co. (contract measurement) scanMAX Kinase assay panel
T4 sequence (Q9H093 1-628): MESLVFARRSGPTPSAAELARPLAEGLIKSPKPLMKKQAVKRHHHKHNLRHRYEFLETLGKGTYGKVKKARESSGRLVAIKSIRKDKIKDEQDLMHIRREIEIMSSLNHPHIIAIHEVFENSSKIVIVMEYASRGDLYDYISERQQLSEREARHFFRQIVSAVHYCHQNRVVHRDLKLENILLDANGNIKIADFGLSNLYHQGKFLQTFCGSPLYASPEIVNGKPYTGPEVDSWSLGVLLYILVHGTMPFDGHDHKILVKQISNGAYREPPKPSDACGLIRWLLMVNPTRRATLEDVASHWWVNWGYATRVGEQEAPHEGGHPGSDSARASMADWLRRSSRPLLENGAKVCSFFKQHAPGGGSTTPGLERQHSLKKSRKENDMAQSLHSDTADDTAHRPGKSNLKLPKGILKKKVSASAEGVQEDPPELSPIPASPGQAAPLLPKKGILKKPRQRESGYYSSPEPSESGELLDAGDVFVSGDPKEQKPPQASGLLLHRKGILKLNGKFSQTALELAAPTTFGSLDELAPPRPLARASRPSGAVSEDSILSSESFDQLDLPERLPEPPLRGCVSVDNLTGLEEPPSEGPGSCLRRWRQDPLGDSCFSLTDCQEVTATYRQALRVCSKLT
Conditions: kinase SNARK; 1 uM in DMSO. In a few lines:
as §1

For test [5], the target named is T5, kinases of the scanMAX Kinase assay panel (Homo sapiens, UniProt P42679).
T5 construct: purchased DiscoverX Co. (contract measurement) scanMAX Kinase assay panel
T5 sequence (P42679 1-507): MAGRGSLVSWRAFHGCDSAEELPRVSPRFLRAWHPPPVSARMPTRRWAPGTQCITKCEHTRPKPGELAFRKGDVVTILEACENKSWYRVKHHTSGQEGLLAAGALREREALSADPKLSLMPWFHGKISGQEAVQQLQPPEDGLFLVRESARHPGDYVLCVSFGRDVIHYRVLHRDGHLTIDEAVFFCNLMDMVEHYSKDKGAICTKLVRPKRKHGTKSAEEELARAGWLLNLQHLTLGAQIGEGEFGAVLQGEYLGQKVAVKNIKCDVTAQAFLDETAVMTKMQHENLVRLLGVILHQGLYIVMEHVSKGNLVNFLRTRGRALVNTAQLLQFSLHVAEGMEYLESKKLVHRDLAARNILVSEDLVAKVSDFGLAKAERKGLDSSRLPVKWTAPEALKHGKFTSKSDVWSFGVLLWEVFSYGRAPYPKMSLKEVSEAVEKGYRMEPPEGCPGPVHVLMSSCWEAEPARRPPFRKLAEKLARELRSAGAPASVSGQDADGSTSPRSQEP
Conditions: CTK; 1 uM. In a few lines:
as §1

Test [6] has as its target T6, kinases of the scanMAX Kinase assay panel (Homo sapiens, UniProt P15735).
T6 construct: purchased DiscoverX Co. (contract measurement) scanMAX Kinase assay panel
T6 sequence (P15735 1-406): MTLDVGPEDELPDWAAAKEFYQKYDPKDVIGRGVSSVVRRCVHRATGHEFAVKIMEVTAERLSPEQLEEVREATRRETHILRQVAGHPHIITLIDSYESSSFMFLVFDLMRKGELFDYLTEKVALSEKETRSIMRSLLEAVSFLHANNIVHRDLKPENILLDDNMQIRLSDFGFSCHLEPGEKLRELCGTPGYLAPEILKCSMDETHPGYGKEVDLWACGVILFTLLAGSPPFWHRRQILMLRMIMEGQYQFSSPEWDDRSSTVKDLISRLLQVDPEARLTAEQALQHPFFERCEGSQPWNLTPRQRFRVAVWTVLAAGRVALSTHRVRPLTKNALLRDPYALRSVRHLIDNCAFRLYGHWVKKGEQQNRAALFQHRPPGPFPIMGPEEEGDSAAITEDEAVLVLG
Conditions: PHKG2; 1 uM. In a few lines:
as §1

Test [7] has as its target T7, kinases of the scanMAX Kinase assay panel (Homo sapiens, UniProt Q9Y2H1).
T7 construct: purchased DiscoverX Co. (contract measurement) scanMAX Kinase assay panel
Conditions: NDR2; 1 uM. In a few lines:
as §1

In test [8] the target is T8, kinases of the scanMAX Kinase assay panel (Homo sapiens, UniProt P51451).
T8 construct: purchased DiscoverX Co. (contract measurement) scanMAX Kinase assay panel
The conditions noted are these: BLK; 1 uM. In a few lines: as §1

Test [9] addresses T9, kinases of the scanMAX Kinase assay panel (Homo sapiens, UniProt P50613).
T9 construct: purchased DiscoverX Co. (contract measurement) scanMAX Kinase assay panel
The conditions noted are these: CDK7; 1 uM. In a few lines:
as §1

T1 sequence (Q9Y6E0 whole entry): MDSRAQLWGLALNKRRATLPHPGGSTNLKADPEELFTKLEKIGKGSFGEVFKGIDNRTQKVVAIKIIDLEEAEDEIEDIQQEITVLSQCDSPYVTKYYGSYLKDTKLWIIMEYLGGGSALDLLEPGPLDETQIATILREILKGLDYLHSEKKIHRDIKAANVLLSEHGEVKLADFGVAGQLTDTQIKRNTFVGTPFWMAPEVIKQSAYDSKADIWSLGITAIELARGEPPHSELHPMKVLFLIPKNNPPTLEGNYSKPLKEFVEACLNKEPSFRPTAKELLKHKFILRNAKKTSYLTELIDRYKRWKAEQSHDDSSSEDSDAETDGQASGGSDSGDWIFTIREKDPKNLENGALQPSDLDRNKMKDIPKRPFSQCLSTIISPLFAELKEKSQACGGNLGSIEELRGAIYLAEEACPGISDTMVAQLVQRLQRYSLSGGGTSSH
T9 sequence (P50613 whole entry): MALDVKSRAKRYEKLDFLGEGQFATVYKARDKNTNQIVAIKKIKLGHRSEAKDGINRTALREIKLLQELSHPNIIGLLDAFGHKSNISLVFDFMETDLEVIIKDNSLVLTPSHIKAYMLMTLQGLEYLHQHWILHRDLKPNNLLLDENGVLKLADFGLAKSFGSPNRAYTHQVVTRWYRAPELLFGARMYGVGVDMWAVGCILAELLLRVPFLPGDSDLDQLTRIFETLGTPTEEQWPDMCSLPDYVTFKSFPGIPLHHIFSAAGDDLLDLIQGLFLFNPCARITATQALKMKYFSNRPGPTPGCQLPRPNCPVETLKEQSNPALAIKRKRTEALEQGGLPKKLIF
T2 sequence (Q9Y5S2 whole entry): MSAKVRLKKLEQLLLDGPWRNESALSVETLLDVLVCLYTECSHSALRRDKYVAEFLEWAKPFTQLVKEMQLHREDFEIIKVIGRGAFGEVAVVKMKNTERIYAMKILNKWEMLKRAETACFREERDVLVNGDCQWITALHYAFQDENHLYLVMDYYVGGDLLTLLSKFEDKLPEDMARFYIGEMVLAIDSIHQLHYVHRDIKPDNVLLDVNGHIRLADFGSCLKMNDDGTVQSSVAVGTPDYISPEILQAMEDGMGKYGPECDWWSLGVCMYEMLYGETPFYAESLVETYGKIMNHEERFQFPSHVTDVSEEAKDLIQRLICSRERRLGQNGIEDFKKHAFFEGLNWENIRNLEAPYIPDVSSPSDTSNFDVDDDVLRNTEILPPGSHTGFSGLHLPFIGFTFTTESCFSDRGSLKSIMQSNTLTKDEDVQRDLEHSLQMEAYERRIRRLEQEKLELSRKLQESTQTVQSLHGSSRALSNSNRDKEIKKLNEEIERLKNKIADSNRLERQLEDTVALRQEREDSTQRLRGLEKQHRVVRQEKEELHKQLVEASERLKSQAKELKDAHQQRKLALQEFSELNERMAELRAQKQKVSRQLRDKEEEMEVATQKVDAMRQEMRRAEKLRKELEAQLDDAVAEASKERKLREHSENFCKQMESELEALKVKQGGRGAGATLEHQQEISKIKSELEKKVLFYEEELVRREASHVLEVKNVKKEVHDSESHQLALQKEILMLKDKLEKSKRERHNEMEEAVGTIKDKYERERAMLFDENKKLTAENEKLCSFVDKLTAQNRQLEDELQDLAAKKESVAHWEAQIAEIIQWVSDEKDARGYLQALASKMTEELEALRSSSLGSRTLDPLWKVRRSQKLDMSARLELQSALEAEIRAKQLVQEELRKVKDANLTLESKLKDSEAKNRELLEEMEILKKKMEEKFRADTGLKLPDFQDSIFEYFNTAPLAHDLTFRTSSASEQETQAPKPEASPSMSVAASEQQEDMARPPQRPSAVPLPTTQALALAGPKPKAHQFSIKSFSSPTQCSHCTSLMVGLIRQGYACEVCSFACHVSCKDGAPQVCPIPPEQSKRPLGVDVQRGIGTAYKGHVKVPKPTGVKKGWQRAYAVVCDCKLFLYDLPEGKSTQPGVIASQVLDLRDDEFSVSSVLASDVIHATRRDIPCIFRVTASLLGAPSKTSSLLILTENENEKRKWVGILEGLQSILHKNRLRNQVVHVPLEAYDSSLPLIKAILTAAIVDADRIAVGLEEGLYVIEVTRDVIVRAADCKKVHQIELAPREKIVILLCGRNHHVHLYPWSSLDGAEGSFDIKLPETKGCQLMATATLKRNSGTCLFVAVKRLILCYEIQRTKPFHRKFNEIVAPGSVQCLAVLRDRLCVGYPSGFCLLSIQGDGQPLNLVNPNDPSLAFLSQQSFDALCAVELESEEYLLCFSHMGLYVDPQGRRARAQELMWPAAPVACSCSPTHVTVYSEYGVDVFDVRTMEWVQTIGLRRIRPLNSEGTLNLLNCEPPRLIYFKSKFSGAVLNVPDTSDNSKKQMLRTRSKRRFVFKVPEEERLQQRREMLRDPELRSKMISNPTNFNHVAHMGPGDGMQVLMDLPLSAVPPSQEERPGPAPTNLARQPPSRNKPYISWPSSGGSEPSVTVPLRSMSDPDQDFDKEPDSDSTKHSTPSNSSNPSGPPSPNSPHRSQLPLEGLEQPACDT
T8 sequence (P51451 whole entry): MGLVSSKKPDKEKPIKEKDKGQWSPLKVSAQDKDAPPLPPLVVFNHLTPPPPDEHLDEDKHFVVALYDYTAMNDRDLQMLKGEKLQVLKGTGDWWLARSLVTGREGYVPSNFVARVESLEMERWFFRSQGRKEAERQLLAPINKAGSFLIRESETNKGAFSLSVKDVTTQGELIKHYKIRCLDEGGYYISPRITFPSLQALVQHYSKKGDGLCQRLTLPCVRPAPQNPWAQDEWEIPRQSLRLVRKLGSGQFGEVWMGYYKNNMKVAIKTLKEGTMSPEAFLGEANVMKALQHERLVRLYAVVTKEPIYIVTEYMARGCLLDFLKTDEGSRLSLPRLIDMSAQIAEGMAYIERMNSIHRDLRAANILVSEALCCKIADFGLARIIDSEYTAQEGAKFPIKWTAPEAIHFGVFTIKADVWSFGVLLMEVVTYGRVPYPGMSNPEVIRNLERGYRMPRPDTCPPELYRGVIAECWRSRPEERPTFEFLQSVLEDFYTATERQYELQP
T7 sequence (Q9Y2H1 whole entry): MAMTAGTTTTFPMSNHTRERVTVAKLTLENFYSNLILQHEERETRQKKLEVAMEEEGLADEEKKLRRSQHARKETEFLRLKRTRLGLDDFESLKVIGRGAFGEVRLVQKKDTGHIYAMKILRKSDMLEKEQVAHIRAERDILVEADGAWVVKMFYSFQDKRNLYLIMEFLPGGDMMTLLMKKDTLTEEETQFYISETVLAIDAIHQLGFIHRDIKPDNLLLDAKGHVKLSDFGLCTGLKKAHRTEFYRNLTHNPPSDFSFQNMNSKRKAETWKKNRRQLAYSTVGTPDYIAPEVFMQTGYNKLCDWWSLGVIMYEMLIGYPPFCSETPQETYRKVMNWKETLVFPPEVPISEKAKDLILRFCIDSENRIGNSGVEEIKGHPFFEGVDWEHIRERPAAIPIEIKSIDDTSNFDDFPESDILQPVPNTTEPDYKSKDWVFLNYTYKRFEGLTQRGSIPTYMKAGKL
T3 sequence (P07333 20-972): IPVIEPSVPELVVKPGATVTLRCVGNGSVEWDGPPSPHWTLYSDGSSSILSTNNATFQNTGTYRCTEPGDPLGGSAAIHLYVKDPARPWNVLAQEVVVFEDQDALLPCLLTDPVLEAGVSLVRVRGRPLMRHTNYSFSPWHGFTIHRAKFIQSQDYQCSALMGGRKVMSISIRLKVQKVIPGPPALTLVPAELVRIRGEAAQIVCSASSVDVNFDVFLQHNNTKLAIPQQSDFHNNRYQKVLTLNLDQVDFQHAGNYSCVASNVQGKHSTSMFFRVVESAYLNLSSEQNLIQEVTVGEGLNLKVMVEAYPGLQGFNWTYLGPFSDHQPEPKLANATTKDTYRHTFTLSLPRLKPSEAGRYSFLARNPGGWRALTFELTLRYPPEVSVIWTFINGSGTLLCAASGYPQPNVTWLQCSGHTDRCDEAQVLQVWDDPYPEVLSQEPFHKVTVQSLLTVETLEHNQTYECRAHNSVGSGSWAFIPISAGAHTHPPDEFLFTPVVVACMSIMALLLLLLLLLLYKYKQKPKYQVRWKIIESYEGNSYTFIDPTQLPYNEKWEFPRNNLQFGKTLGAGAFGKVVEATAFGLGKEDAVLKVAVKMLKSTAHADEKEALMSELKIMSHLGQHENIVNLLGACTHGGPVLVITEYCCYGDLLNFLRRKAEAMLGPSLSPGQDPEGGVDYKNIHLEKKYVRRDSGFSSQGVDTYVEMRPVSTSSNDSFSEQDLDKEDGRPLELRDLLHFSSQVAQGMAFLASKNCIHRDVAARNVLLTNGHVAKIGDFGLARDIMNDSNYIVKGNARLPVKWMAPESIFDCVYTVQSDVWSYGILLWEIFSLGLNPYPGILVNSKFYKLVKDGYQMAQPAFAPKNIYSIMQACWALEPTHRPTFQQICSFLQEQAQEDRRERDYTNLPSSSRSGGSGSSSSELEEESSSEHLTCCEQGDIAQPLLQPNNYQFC

Consider `CNc1nc(Nc2ccc(C(=O)N3CCOCC3)cc2OC)nc2[nH]cc(C#N)c12` [Example 1, 2-((2-methoxy-4-(morpholine-4-carbonyl)phenyl)amino)-4-(methylamino)-7H-pyrrolo[2,3-d]pyrimidine-5-carbonitrile], for which the remaining binding at 1 µM in test [1] worked out at 86%; in test [2] it was 100%; in test [3] (CSF1R-autoinhibited), 46%; in [3] (CSF1R) it was 89%; in test [4] it was 77%; in test [5] it was 98%. The remaining binding at 1 µM in test [6] amounted to 14%; in [7], 98%; in [8], 100%; in test [9], 67%.

For the compound `CC1(Nc2nc(Nc3cnn([C@H]4CCN(C5COC5)C[C@@H]4F)c3Cl)nc3[nH]cc(C#N)c23)CC1` [Example 52, 2-((5-chloro-1-((3S,4S)-3-fluoro-1-(oxetane-3-yl)piperidine-4-yl)-1H-pyrazole-4-yl)amino)((1-methylcyclopropyl)amino)-7H-pyrrolo[2,3-d]pyrimidine-5-carbonitrile], the remaining binding at 1 µM in test [1] turned out to be 25%; in [2], 89%; in test [3] (CSF1R-autoinhibited), 0%; in test [3] (CSF1R), 0%; in [4], 0.95%; in test [5], 47%. Also, the remaining binding at 1 µM in test [6] was determined as 5.2%; in test [7] it was 31%; in test [8], 2.2%; in test [9] it was 19%.

As to `CCNc1nc(Nc2ccc(C(=O)N3CCC(N4CCOCC4)CC3)cc2OC)nc2[nH]cc(C(F)(F)F)c12` [Example 104, (4-((4-(ethylamino)-5-(trifluoromethyl)-7H-pyrrolo[2,3-d]pyrimidine-2-yl)amino)-3-methoxyphenyl)(4-morpholinopiperidine-1-yl)methanone], the remaining binding at 1 µM in test [1] was 84%; in [2], 100%; in test [3] (CSF1R-autoinhibited), 100%; in test [3] (CSF1R) it was 88%; in [4] it was 91%; in [5], 100%. The remaining binding at 1 µM in test [6] is 9.3%; in [7], 100%; in test [8], 100%; in [9] it was 48%.
